± gives the expanded uncertainty stated by the source.
Settings: for vapor or sublimation pressure: Liquid, Gas chromatography

| Structure (SMILES) | vapor or sublimation pressure (298.15 K) | vapor or sublimation pressure (310 K) | vapor or sublimation pressure (320 K) | vapor or sublimation pressure (330 K) | vapor or sublimation pressure (340 K) | vapor or sublimation pressure (350 K) | vapor or sublimation pressure (360 K) | vapor or sublimation pressure (370 K) | vapor or sublimation pressure (380 K) | vapor or sublimation pressure (390 K) | vapor or sublimation pressure (400 K) | vapor or sublimation pressure (410 K) | vapor or sublimation pressure (420 K) | vapor or sublimation pressure (430 K) | vapor or sublimation pressure (440 K) | vapor or sublimation pressure (450 K) | vapor or sublimation pressure (460 K) | vapor or sublimation pressure (470 K) | vapor or sublimation pressure (480 K) | vapor or sublimation pressure (490 K) | further results |
| --- | --- | --- | --- | --- | --- | --- | --- | --- | --- | --- | --- | --- | --- | --- | --- | --- | --- | --- | --- | --- | --- |
| C[C@@H]1CC[C@H]2C(C)(C)[C@H]3C[C@@]12CC[C@@]3(C)O [(+)-cedrol] | 7e-05 ± 2e-05 kPa | 0.00029 ± 0.0001 kPa | 0.00084 ± 0.00027 kPa | 0.0022 ± 0.0007 kPa | 0.0055 ± 0.0018 kPa | 0.013 ± 0.004 kPa | 0.027 ± 0.009 kPa | 0.054 ± 0.017 kPa | 0.1 ± 0.031 kPa | 0.19 ± 0.05 kPa | 0.33 ± 0.08 kPa | 0.55 ± 0.12 kPa | 0.89 ± 0.16 kPa | 1.4 ± 0.21 kPa | 2.1 ± 0.27 kPa | 3.1 ± 0.33 kPa | 4.5 ± 0.4 kPa | 6.3 ± 0.5 kPa | 8.7 ± 0.68 kPa | 12 ± 0.93 kPa | vapor or sublimation pressure (500 K): 16 ± 1.2 kPa; vapor or sublimation pressure (583.5 K): 101.33 ± 15 kPa; Normal melting temperature (Crystal, visual observation): 86.00 ± 3 °C |
| C=CC(C)(O)CC/C=C(\C)CCC=C(C)C (centres undefined) [(E)-3,7,11-trimethyldodeca-1,6,10-trien-3-ol] | 6e-05 ± 2e-05 kPa | 0.00024 ± 8e-05 kPa | 0.00074 ± 0.00025 kPa | 0.0021 ± 0.0007 kPa | 0.0053 ± 0.0016 kPa | 0.013 ± 0.004 kPa | 0.028 ± 0.009 kPa | 0.058 ± 0.018 kPa | 0.115 ± 0.033 kPa | 0.22 ± 0.058 kPa | 0.39 ± 0.092 kPa | 0.67 ± 0.14 kPa | 1.1 ± 0.2 kPa | 1.8 ± 0.27 kPa | 2.8 ± 0.34 kPa | 4.3 ± 0.43 kPa | 6.3 ± 0.54 kPa | 9.1 ± 0.71 kPa | 13 ± 1 kPa | 18 ± 1.4 kPa | vapor or sublimation pressure (500 K): 24 ± 1.9 kPa; vapor or sublimation pressure (554.7 K): 101.33 ± 13 kPa |
| C=CC(C)(O)CC/C=C(/C)CCC=C(C)C (centres undefined) [(Z)-3,7,11-trimethyldodeca-1,6,10-trien-3-ol] | 7.5e-05 ± 4e-05 kPa | 0.00032 ± 0.0001 kPa | 0.001 ± 0.0003 kPa | 0.0026 ± 0.0008 kPa | 0.0067 ± 0.0017 kPa | 0.016 ± 0.005 kPa | 0.034 ± 0.011 kPa | 0.071 ± 0.021 kPa | 0.14 ± 0.039 kPa | 0.26 ± 0.067 kPa | 0.46 ± 0.11 kPa | 0.79 ± 0.16 kPa | 1.3 ± 0.22 kPa | 2.1 ± 0.3 kPa | 3.3 ± 0.4 kPa | 4.9 ± 0.49 kPa | 7.2 ± 0.61 kPa | 10 ± 0.78 kPa | 15 ± 1.2 kPa | 20 ± 1.6 kPa | vapor or sublimation pressure (500 K): 27 ± 2.1 kPa; vapor or sublimation pressure (550.3 K): 101.33 ± 13 kPa |
| OC12CC3CC(CC(C3)C1)C2 [1-adamantanol] | 0.0019 ± 0.0002 kPa | 0.0062 ± 0.0005 kPa | 0.015 ± 0.002 kPa | 0.035 ± 0.005 kPa | 0.074 ± 0.011 kPa | 0.15 ± 0.021 kPa | 0.28 ± 0.038 kPa | 0.51 ± 0.063 kPa | 0.88 ± 0.095 kPa | 1.5 ± 0.14 kPa | 2.3 ± 0.19 kPa | 3.6 ± 0.28 kPa | 5.4 ± 0.42 kPa | 7.9 ± 0.61 kPa | 11 ± 0.85 kPa | 16 ± 1.2 kPa | 22 ± 1.7 kPa | 29 ± 2.2 kPa | 38 ± 3.1 kPa | 49 ± 4.7 kPa | vapor or sublimation pressure (500 K): 62 ± 7.6 kPa; vapor or sublimation pressure (521.2 K): 101.33 ± 10 kPa |

— the NIST ThermoML archive (doi:10.1016/j.jct.2017.07.018)
